Results from patent US20240083857A1, “2-Methyl-Quinazolines” (Bayer Pharma Aktiengesellschaft, priority 2017, published 2024).

Experiments:
[1] = molecular target: human SOS1 (loading of human K-Ras^G12C-GDP with fluorescent GTP-analog) (Homo sapiens, UniProt Q07889); test: Biochemical assay 3: K-Ras^G12C activation assay by hSOS1 (HTRF); conditions: no GTP; for IC50: read-out: Assay 3 (KRAS-Activation by SOS no GTP) activity expressed as IC50; for inhibition at 20 µM: read-out: Assay 3 (KRAS-Activation by SOS no GTP) activity expressed as % inhibition at 20 μM
[2] = molecular target: Epidermal Growth Factor Receptor (EGFR) (Homo sapiens (Human), UniProt P00533); test: EGFR kinase assay (TR-FRET); assay type: biochemical; conditions: values given in μM; read-out: EGFR kinase inhibition IC50
How it was run: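 Read-out is the 665/620 nm HTRF ratio, from a Tb-cryptate anti-phosphotyrosine antibody and streptavidin-XL665 bound to phosphorylated biotin-peptide substrate. The enzyme, A431-derived EGFR (~3 U/ml), was given 15 min compound pre-binding at 22° C in Hepes pH 7.0 with Mg2+/Mn2+ before reaction.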

Chain of Epidermal Growth Factor Receptor (EGFR) (P00533 25-1210): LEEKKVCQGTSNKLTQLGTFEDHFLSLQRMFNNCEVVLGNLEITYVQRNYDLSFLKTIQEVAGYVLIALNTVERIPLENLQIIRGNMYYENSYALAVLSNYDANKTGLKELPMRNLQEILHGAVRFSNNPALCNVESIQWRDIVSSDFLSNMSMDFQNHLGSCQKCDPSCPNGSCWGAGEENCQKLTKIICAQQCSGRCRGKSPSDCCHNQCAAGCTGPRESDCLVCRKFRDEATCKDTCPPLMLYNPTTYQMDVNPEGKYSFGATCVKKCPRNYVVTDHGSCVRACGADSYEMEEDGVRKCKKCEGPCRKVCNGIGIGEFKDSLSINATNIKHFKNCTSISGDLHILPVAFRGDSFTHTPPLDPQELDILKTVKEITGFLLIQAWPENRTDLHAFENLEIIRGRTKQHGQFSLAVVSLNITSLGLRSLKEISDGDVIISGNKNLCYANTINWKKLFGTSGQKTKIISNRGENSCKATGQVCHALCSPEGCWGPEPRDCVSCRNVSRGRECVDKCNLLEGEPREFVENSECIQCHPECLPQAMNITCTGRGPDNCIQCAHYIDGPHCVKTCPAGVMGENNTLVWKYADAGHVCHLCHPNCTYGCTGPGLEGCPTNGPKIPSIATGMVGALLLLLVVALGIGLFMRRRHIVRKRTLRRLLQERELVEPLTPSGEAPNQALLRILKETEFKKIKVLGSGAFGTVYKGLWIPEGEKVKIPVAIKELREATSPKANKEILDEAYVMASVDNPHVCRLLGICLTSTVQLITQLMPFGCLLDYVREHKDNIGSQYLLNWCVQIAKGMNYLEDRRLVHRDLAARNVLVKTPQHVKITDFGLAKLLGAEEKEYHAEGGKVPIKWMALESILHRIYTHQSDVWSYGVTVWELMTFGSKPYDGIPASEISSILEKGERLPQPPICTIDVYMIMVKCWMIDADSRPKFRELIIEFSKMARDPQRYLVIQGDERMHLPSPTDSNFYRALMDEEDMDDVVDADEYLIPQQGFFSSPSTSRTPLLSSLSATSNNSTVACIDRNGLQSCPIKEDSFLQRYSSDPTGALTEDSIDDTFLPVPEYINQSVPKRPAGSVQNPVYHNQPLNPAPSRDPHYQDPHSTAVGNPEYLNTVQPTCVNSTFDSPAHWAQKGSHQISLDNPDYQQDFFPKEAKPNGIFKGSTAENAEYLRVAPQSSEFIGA

| Compound | IC50 [1] [µM] | IC50 [2] [µM] | inhibition at 20 µM [1] [%] |
| --- | --- | --- | --- |
| COc1cc2nc(C)nc(NC(C)c3ccc(-c4ccccc4CN4CCC(N(C)C)C4)s3)c2cc1OC (stereo not shown) [Example 238, N-{1-[5-(2-{[3-(dimethylamino)pyrrolidin-1-yl]methyl}phenyl)thiophen-2-yl]ethyl}-6,7-dimethoxy-2-methylquinazolin-4-amine] | 0.216 | > 20 | – |
| COc1cc2nc(C)nc(NC(C)c3csc(Br)c3)c2cc1OC (stereo not shown) [Example 239, N-[1-(5-bromothiophen-3-yl)ethyl]-6,7-dimethoxy-2-methylquinazolin-4-amine] | 14.3 | > 20 | – |
| COc1cc2nc(C)nc(NC(C)c3ccc(-c4ccccc4C(N)=O)s3)c2cc1OC (stereo not shown) [Example 240, 2-(5-{1-[(6,7-dimethoxy-2-methylquinazolin-4-yl)amino]ethyl}thiophen-2-yl)benzamide] | 7.57 | > 20 | – |
| COc1cc2nc(C)nc(NC(C)c3ccc(-c4cccc(C(N)=O)c4)s3)c2cc1OC (stereo not shown) [Example 241, 3-(5-{1-[(6,7-dimethoxy-2-methylquinazolin-4-yl)amino]ethyl}thiophen-2-yl)benzamide] | 1.31 | > 20 | – |
| COc1cc2nc(C)nc(NC(C)c3ccc(-c4ccc(C(N)=O)cc4)s3)c2cc1OC (stereo not shown) [Example 242, 4-(5-{1-[(6,7-dimethoxy-2-methylquinazolin-4-yl)amino]ethyl}thiophen-2-yl)benzamide] | 3.01 | > 20 | – |
| COc1cc2nc(C)nc(NC(C)c3ccc(-c4ccccc4N)s3)c2cc1OC (stereo not shown) [Example 243, N-{1-[5-(2-aminophenyl)thiophen-2-yl]ethyl}-6,7-dimethoxy-2-methylquinazolin-4-amine] | 0.418 | > 20 | – |
| COc1cc2nc(C)nc(NC(C)c3ccc(-c4ccccc4CO)s3)c2cc1OC (stereo not shown) [Example 244, [2-(5-{1-[(6,7-dimethoxy-2-methylquinazolin-4-yl)amino]ethyl}thiophen-2-yl)phenyl]methanol] | 0.444 | > 20 | – |
| COc1cc2nc(C)nc(NC(C)c3ccc(-c4ccccc4C#N)s3)c2cc1OC (stereo not shown) [Example 245, 2-(5-{1-[(6,7-dimethoxy-2-methylquinazolin-4-yl)amino]ethyl}thiophen-2-yl)benzonitrile] | 0.918 | > 20 | – |
| COc1cc2nc(C)nc(NC(C)c3ccc(-c4cccc5cn[nH]c45)s3)c2cc1OC (stereo not shown) [Example 246, N-{1-[5-(1H-indazol-7-yl)thiophen-2-yl]ethyl}-6,7-dimethoxy-2-methylquinazolin-4-amine] | – | > 20 | 44 |
| COc1cc2nc(C)nc(NC(C)c3ccc(-c4cccc5[nH]ncc45)s3)c2cc1OC (stereo not shown) [Example 247, N-{1-[5-(1H-indazol-4-yl)thiophen-2-yl]ethyl}-6,7-dimethoxy-2-methylquinazolin-4-amine] | 2.7 | > 20 | – |
| C=Cc1ccccc1-c1ccc(C(C)Nc2nc(C)nc3cc(OC)c(OC)cc23)s1 (stereo not shown) [Example 248, N-{1-[5-(2-ethenylphenyl)thiophen-2-yl]ethyl}-6,7-dimethoxy-2-methylquinazolin-4-amine] | 8.43 | > 20 | – |
| COc1cc2nc(C)nc(NC(C)c3ccc(-c4cnn(CC(N)=O)c4)s3)c2cc1OC (stereo not shown) [Example 249, 2-[4-(5-{1-[(6,7-dimethoxy-2-methylquinazolin-4-yl)amino]ethyl}thiophen-2-yl)-1H-pyrazol-1-yl]acetamide] | 8.79 | > 20 | – |
| CNCc1ccccc1-c1ccc(C(C)Nc2nc(C)nc3cc(OC)c(OC)cc23)s1 (stereo not shown) [Example 250, 6,7-dimethoxy-2-methyl-N-[1-(5-{2-[(methylamino)methyl]phenyl}thiophen-2-yl)ethyl]quinazolin-4-amine] | 0.0704 | > 20 | – |
| COc1cc2nc(C)nc(NC(C)c3csc(-c4cnn(CCO)c4)c3)c2cc1OC (stereo not shown) [Example 251, 2-[4-(4-{1-[(6,7-dimethoxy-2-methylquinazolin-4-yl)amino]ethyl}thiophen-2-yl)-1H-pyrazol-1-yl]ethanol] | – | > 20 | 52 |
| COc1cc2nc(C)nc(NC(C)c3ccc(-c4ccccc4CN)s3)c2cc1OC (stereo not shown) [Example 252, N-[1-{5-[2-(aminomethyl)phenyl]thiophen-2-yl}ethyl]-6,7-dimethoxy-2-methylquinazolin-4-amine] | 0.103 | > 20 | – |
| COc1cc2nc(C)nc(NC(C)c3csc(-c4cnc5n4CCC5)c3)c2cc1OC (stereo not shown) [Example 253, N-{1-[5-(6,7-dihydro-5H-pyrrolo[1,2-a]imidazol-3-yl)thiophen-3-yl]ethyl}-6,7-dimethoxy-2-methylquinazolin-4-amine] | 5.8 | > 20 | – |
| COc1cc2nc(C)nc(NC(C)c3csc(-c4cnn(CCN5CCCC5)c4)c3)c2cc1OC (stereo not shown) [Example 254, 6,7-dimethoxy-2-methyl-N-[1-(5-{1-[2-(pyrrolidin-1-yl)ethyl]-1H-pyrazol-4-yl}thiophen-3-yl)ethyl]quinazolin-4-amine] | 3.45 | > 20 | – |
| COc1cc2nc(C)nc(NC(C)c3csc(-c4ccc(F)cc4CN)c3)c2cc1OC (stereo not shown) [Example 255, N-[1-{5-[2-(aminomethyl)-4-fluorophenyl]thiophen-3-yl}ethyl]-6,7-dimethoxy-2-methylquinazolin-4-amine] | 0.39 | > 20 | – |
| COc1cc2nc(C)nc(N[C@H](C)c3cccc(-c4cnn(CCO)c4)c3)c2cc1OC [Example 256, 2-[4-(3-{(1R)-1-[(6,7-dimethoxy-2-methylquinazolin-4-yl)amino]ethyl}phenyl)-1H-pyrazol-1-yl]ethanol] | 1.35 | > 20 | – |
| COc1cc2nc(C)nc(N[C@H](C)c3cccc(-c4cnn(CCN5CCCC5)c4)c3)c2cc1OC [Example 257, 6,7-dimethoxy-2-methyl-N-[(1R)-1-(3-{1-[2-(pyrrolidin-1-yl)ethyl]-1H-pyrazol-4-yl}phenyl)ethyl]quinazolin-4-amine] | 0.852 | > 20 | – |
